Results reported in patent publication US9428456B2, “1-[m-carboxamido(hetero)aryl-methyl]-heterocyclyl-carboxamide derivatives” (Actelion Pharmaceuticals Ltd., priority 2012, dated 2016).

Biological target: CXCR7 (Homo sapiens (Human), UniProt P25106)
Assay: PathHunter CHO-K1 CXCR7 b-arrestin assay (agonistic activity)
Assay type: cell-based
Conditions: PathHunter CHO-K1 CXCR7 b-arrestin cell line
Method in brief: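 CHO-K1 cells co-expressing ProLink-tagged CXCR7 and EA-fused β-arrestin 2 (enzyme fragment complementation); compounds added in HBSS/20 mM HEPES/0.2% BSA after 3–4 h in OPTIMEM, 90 min at 37 °C. Chemiluminescent β-gal signal read after 1 h detection at room temperature; EC50 reported as geometric mean of several measurements.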

Sequence of CXCR7 (P25106 whole entry): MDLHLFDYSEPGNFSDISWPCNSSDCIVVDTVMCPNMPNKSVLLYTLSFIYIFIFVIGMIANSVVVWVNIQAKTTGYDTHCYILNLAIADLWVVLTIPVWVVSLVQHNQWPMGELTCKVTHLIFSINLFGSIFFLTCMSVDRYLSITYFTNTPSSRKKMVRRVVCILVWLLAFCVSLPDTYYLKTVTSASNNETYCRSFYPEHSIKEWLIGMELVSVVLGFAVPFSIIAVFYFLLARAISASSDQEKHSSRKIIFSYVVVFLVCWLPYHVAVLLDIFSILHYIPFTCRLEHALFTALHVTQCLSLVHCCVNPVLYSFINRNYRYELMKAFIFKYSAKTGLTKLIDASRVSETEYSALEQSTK
Sequence of CXCR7 (P32121 whole entry partner): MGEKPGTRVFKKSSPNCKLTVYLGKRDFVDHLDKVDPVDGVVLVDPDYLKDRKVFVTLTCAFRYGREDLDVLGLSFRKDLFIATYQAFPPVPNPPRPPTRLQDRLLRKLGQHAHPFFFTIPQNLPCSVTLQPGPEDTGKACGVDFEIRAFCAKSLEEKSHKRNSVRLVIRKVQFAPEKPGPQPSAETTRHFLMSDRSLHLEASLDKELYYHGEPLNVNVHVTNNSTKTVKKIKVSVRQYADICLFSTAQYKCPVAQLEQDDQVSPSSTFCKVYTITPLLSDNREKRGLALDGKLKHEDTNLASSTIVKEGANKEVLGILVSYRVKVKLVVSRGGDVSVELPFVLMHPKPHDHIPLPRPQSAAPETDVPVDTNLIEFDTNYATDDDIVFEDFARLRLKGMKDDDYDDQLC

Compound | EC50 [nM]
CC(C)(C)NC(=O)C1CCN(Cc2nccc(NC(=O)c3cccc(C(F)(F)F)n3)n2)CC1 [Example 1.286] | 265
O=C(Nc1nc(CN2CCC(C(=O)NC3CCCC3)CC2)cs1)c1ccc(Cl)cc1 [Example 1.293] | 81
Cc1cncc(C(=O)Nc2nc(CN3CCC(C(=O)NC4CCCC4)CC3)cs2)c1 [Example 1.294] | 408
COc1ccc(NC(=O)c2cccc(C(F)(F)F)n2)cc1CN1CCC(C(=O)NC(C)(C)C)CC1 [Example 1.296] | 6
COc1ccc(NC(=O)c2cncc(C)c2)cc1CN1CCC(C(=O)NC(C)(C)C)CC1 [Example 1.297] | 98
COc1ccc(NC(=O)c2ccc(F)cc2)cc1CN1CCC(C(=O)NC(C)(C)C)CC1 [Example 1.298] | 19
Cc1cncc(C(=O)Nc2ccc(C)c(CN3CCC(C(=O)NC(C)(C)C)CC3)c2)c1 [Example 1.299] | 3
Cc1ccc(NC(=O)c2ccc(F)cc2)cc1CN1CCC(C(=O)NC(C)(C)C)CC1 [Example 1.300] | 1
Cc1ccc(CN2CCC(C(=O)NC(C)(C)C)CC2)cc1NC(=O)c1cccc(C(F)(F)F)n1 [Example 1.301] | 2
Cc1cncc(C(=O)Nc2cc(CN3CCC(C(=O)NC(C)(C)C)CC3)ccc2C)c1 [Example 1.302] | 6
Cc1ccc(CN2CCC(C(=O)NC(C)(C)C)CC2)cc1NC(=O)c1ccc(F)cc1 [Example 1.303] | 3
COc1ccc(CN2CCC(C(=O)NC(C)(C)C)CC2)cc1NC(=O)c1cccc(C(F)(F)F)n1 [Example 1.304] | 4
COc1ccc(CN2CCC(C(=O)NC(C)(C)C)CC2)cc1NC(=O)c1cncc(C)c1 [Example 1.305] | 7
COc1ccc(CN2CCC(C(=O)NC(C)(C)C)CC2)cc1NC(=O)c1ccc(F)cc1 [Example 1.306] | 4
CC(C)(C)NC(=O)C1CCN(Cc2cccc(NC(=O)C3(c4ccccc4)CC3)c2)CC1 [Example 1.309] | 1
CC(C)(C)NC(=O)C1CCN(Cc2cccc(NC(=O)C3(c4ccc(Cl)cc4)CC3)c2)CC1 [Example 1.310] | 2
CC(C)(C)NC(=O)C1CCN(Cc2cccc(NC(=O)C(C)(C)c3ccccc3)c2)CC1 [Example 1.311] | 1
CC(C(=O)Nc1cccc(CN2CCC(C(=O)NC(C)(C)C)CC2)c1)c1ccc(Cl)cc1 (centres unmarked) [Example 1.312] | 8
Cc1c(CN2CCC(C(=O)NC(C)(C)C)CC2)cccc1NC(=O)c1ccc(F)cc1 [Example 1.313] | 19
Cc1cncc(C(=O)Nc2cccc(CN3CCC(C(=O)NC(C)(C)C)CC3)c2C)c1 [Example 1.314] | 145
Cc1c(CN2CCC(C(=O)NC(C)(C)C)CC2)cccc1NC(=O)c1cccc(C(F)(F)F)n1 [Example 1.315] | 193
Cc1cc(CN2CCC(C(=O)NC(C)(C)C)CC2)cc(NC(=O)c2cccc(C(F)(F)F)n2)c1 [Example 1.316] | 36

Compound | EC50 [nM]
Cc1cc(CN2CCC(C(=O)NC(C)(C)C)CC2)cc(NC(=O)c2cncc(C)c2)c1 [Example 1.317] | 76
Cc1cc(CN2CCC(C(=O)NC(C)(C)C)CC2)cc(NC(=O)c2ccc(F)cc2)c1 [Example 1.318] | 13
COc1c(CN2CCC(C(=O)NC(C)(C)C)CC2)cccc1NC(=O)c1cccc(C(F)(F)F)n1 [Example 1.319] | 45
COc1c(CN2CCC(C(=O)NC(C)(C)C)CC2)cccc1NC(=O)c1cncc(C)c1 [Example 1.320] | 48
COc1c(CN2CCC(C(=O)NC(C)(C)C)CC2)cccc1NC(=O)c1ccc(F)cc1 [Example 1.321] | 6
CC(C)(C)NC(=O)C1CCN(Cc2cccc(NC(=O)c3cccnn3)c2)CC1 [Example 1.322] | 4
CC(C)(C)NC(=O)C1CCN(Cc2cccc(NC(=O)c3ccnnc3)c2)CC1 [Example 1.323] | 66
Cc1cc(C(=O)Nc2cccc(CN3CCC(C(=O)NC(C)(C)C)CC3)c2)c(Cl)nn1 [Example 1.324] | 51
COc1cc(CN2CCC(C(=O)NC(C)(C)C)CC2)cc(NC(=O)c2cccc(C(F)(F)F)n2)c1 [Example 1.325] | 262
CCc1ccc(CN2CCC(C(=O)NC(C)(C)C)CC2)cc1NC(=O)c1cccc(C(F)(F)F)n1 [Example 1.326] | 2
CCc1ccc(CN2CCC(C(=O)NC(C)(C)C)CC2)cc1NC(=O)c1cncc(C)c1 [Example 1.327] | 28
CCc1ccc(CN2CCC(C(=O)NC(C)(C)C)CC2)cc1NC(=O)c1ccc(F)cc1 [Example 1.328] | 8
CCc1cc(CN2CCC(C(=O)NC(C)(C)C)CC2)cc(NC(=O)c2cccc(C(F)(F)F)n2)c1 [Example 1.329] | 159
CCc1cc(CN2CCC(C(=O)NC(C)(C)C)CC2)cc(NC(=O)c2cncc(C)c2)c1 [Example 1.330] | 285
CCc1cc(CN2CCC(C(=O)NC(C)(C)C)CC2)cc(NC(=O)c2ccc(F)cc2)c1 [Example 1.331] | 62
CCc1ccc(NC(=O)c2cccc(C(F)(F)F)n2)cc1CN1CCC(C(=O)NC(C)(C)C)CC1 [Example 1.332] | 16
CCc1ccc(NC(=O)c2cncc(C)c2)cc1CN1CCC(C(=O)NC(C)(C)C)CC1 [Example 1.333] | 57
CCc1ccc(NC(=O)c2ccc(F)cc2)cc1CN1CCC(C(=O)NC(C)(C)C)CC1 [Example 1.334] | 17
C/C=C/C(=O)Nc1cccc(CN2CCC(C(=O)NC(C)(C)C)CC2)c1 [Example 1.335] | 21
C=CC(=O)Nc1cccc(CN2CCC(C(=O)NC(C)(C)C)CC2)c1 [Example 1.336] | 83
CC(C)(C)NC(=O)C1CCN(Cc2cccc(NC(=O)/C=C/c3ccccc3)c2)CC1 [Example 1.337] | 8
CCC(C)(C)NC(=O)C1CCN(Cc2cccc(NC(=O)c3ccc(Cl)cn3)c2)CC1 [Example 1.338] | 0.8

Compound | EC50 [nM]
CC(C)(C)NC(=O)C1CCN(Cc2cccc(NC(=O)c3ccc(Cl)cn3)c2)CC1 [Example 1.339] | 0.6
CC(C)(C)NC(=O)C1CCN(Cc2cccc(NC(=O)c3ncc(Cl)cc3F)c2)CC1 [Example 1.340] | 0.7
CCC(C)(C)NC(=O)C1CCN(Cc2cccc(NC(=O)c3ccc(C(F)(F)F)cn3)c2)CC1 [Example 1.341] | 1
CN(C)C/C=C/C(=O)Nc1cccc(CN2CCC(C(=O)NC(C)(C)C)CC2)c1 [Example 1.342] | 216
CCC(C)(C)NC(=O)C1CCN(Cc2cccc(NC(=O)c3ncc(Cl)cc3F)c2)CC1 [Example 1.343] | 1
CC(C)(C)NC(=O)C1CCN(Cc2cccc(NC(=O)c3cccc(Br)n3)c2)CC1 [Example 1.344] | 0.9
CC(C)(C)NC(=O)C1CCN(Cc2cccc(NC(=O)c3cccc(C(F)(F)F)[n+]3[O-])c2)CC1 [Example 1.345] | 1
CCC(C)(C)NC(=O)C1CCN(Cc2cccc(NC(=O)c3cccc(C(F)(F)F)[n+]3[O-])c2)CC1 [Example 1.346] | 1
CCC(C)(C)NC(=O)C1CCN(Cc2cccc(NC(=O)c3ccc(C(F)(F)F)c[n+]3[O-])c2)CC1 [Example 1.347] | 16
CC(C)(C)NC(=O)C1CCN(Cc2cccc(NC(=O)c3ccc(C(F)(F)F)c[n+]3[O-])c2)CC1 [Example 1.348] | 8
COC(=O)c1cncc(C(=O)Nc2cccc(CN3CCC(C(=O)NC(C)(C)C)CC3)c2)c1 [Example 1.349] | 34
COC(=O)c1cncc(C(=O)Nc2cccc(CN3CCC(C(=O)NC4CCCCC4)CC3)c2)c1 [Example 1.350] | 29
CC(C)(C)NC(=O)C1CCN(Cc2cccc(NC(=O)c3ccc(S(C)(=O)=O)cc3)c2)CC1 [Example 1.351] | 176
CC(C)(C)NC(=O)C1CCN(Cc2cccc(NC(=O)c3cccc(S(C)(=O)=O)c3)c2)CC1 [Example 1.352] | 71
CC(C)(C)NC(=O)C1CCN(Cc2cccc(NC(=O)c3ccc4ncsc4c3)c2)CC1 [Example 1.353] | 3
Cc1nc2cc(C(=O)Nc3cccc(CN4CCC(C(=O)NC(C)(C)C)CC4)c3)ccc2s1 [Example 1.354] | 108
CC(C)(C)NC(=O)C1CCN(Cc2cccc(NC(=O)c3ccc4snnc4c3)c2)CC1 [Example 1.355] | 3
C[C@H]1C[C@@H](C(=O)NC2CCCCC2)CCN1Cc1cccc(NC(=O)c2cccc(C(F)(F)F)n2)c1 [Example 2.105, 6-Trifluoromethyl-pyridine-2-carboxylic acid [3-((2S,4S)-4-cyclohexylcarbamoyl-2-methyl-piperidin-1-ylmethyl)-phenyl]-amide or 6-trifluoromethyl-pyridine-2-carboxylic acid [3-((2R,4R)-4-cyclohexylcarbamoyl-2-methyl-piperidin-1-ylmethyl)-phenyl]-amide] | 3
C[C@@H]1C[C@H](C(=O)NC2CCCCC2)CCN1Cc1cccc(NC(=O)c2cccc(C(F)(F)F)n2)c1 [Example 2.106, 6-Trifluoromethyl-pyridine-2-carboxylic acid [3-((2R,4R)-4-cyclohexylcarbamoyl-2-methyl-piperidin-1-ylmethyl)-phenyl]-amide or 6-trifluoromethyl-pyridine-2-carboxylic acid [3-((2S,4S)-4-cyclohexylcarbamoyl-2-methyl-piperidin-1-ylmethyl)-phenyl]-amide] | 49
COc1cncc(C(=O)Nc2cccc(CN3CCC(C(=O)NC(C)(C)C)CC3)c2)c1 [Example 4.014, N-[3-(4-tert-Butylcarbamoyl-piperidin-1-ylmethyl)-phenyl]-5-methoxy-nicotinmide] | 8
CC(C)(C)NC(=O)C1CCN(Cc2cccc(NC(=O)c3ccc(F)cn3)c2)CC1 [Example 4.020, 5-Fluoro-pyridine-2-carboxylic acid [3-(4-tert-butylcarbamoyl-piperidin-1-ylmethyl)-phenyl]-amide] | 0.6
